# From patent publication US20250059139A1, “COMPOUNDS FOR TREATMENT OF CANCER” (THE JOHNS HOPKINS UNIVERSITY, priority 2021, published 2025)
# Where “and” joins values, the source holds several entries; their conditions need not be identical. Equal values may be shown once.
# What was measured:
# [1] = test system: CYP1A1; assay: CYP1A1 mRNA induction in LNCaP cells (RT-PCR); format: cell-based; conditions: human, read-out: EC50 as a CYP1A inducer in LNCaP cells
# From the text: Real-time quantitative PCR (Q-PCR) analysis. […] ID NO: 2) and […] ID NO: 3). […] ID NO: 4) and […] ID NO: 5).
# [2] = test system: solid malignances; conditions: cited from earlier work
# [3] = test system: CWR22-RH PDXs; assay: RNA sequencing of in vivo growing CWR22-RH PDXs in castrate hosts; set-up: species or system human; conditions: TasQ 10 mg/kg/d orally vs. vehicle control
# Protocol: RNA Sequencing Analysis of In vivo Growing Xenografts. This was performed as described previously (Brennen 2021; Zhu 2020) with read counts normalized per kilo base-pair gene length and per million reads library size (RPKM).
# RNAseq analysis was performed on CWR22-RH PDX tissue growing in the compromised hypoxic TME of castrated hosts with or without daily oral TasQ (10 mg/kg/d). Such dosing produces optimal CWR22-RH growth inhibition (FIG. 1) consistent with downregulation of the expression of proliferation-associated target genes in addition to the AR and its target genes (Table 1A). In addition, such daily TasQ treatment lowers HIF-1α protein in tumors by >50% (Olsson 2010) suppressing HIF1-dependent cell survival target genes (Table 1B). […] As predicted at this drug level, elevated expression of AHR and a series of its target genes is observed (Table 1C).
# [4] = test system: mCRPC patients; conditions: cited from earlier work
# [5] = test system: human prostate cancer cell lines; conditions: optimal normoxic, nutrient and pH culture conditions; previous studies; read-out: IC50 in vitro growth of human prostate cancer cell lines; cited from earlier work
# [6] = test system: LvCaP-3 human prostate cancer PDXs; assay: In vivo growth of LvCaP-3 xenografts in castrate hosts; conditions: daily oral 10 mg/kg
# From the text: Prostate Cancer Models. The source, history, and characteristics of the human prostate cancer cell lines and PDXs used, as well as cell culture conditions for their in vitro maintenance and the in vivo protocol for xenograft growth in triple immune-deficient NSG (i.e. NOD.Cg-PrkdcScidIl2rgtmlWji/Szj), adult (>8 week old) male mice obtained from the Sidney Kimmel Comprehensive Cancer Center (SKCCC) Animal Core Facility are described previously (Isaacs 2013; Brennen et al. JCI Insight. 2021, 6(8):e146827; Zhu et al. Oncogene 2020, 39(45): 6935-6949). […] In vitro growth curves were determined as described (Isaacs 2013). In vivo growth response to oral daily TasQ (10 mg/kg/d) of TRAMP-C2 mouse prostate cancers was evaluated in C57BL/6J syngeneic wild type vs. NOX-2 vs. iNOS null male mice obtained from Jackson Laboratory (Bar Harbor, ME). Growth response to oral daily TasQ (10 mg/kg/d) of TRAMP-C2 and B6CaP mouse prostate cancers was also evaluated in S100A9 null C57BL′6J male mice obtained from Dmitry Gabrilovich (Wistar Institute). […] In vitro growth curves were determined as described (Isaacs 2013). Growth response to daily oral TasQ vs. ESATA-20 (both at 10 mg/kg/d) of Myc-CaP-CR mouse prostate cancer was evaluated in syngeneic FVB/NJ castrate male mice from Jackson Laboratory. […]
smiles,measurement,setting,value
"COc1cccc2c1c(O)c(C(=O)N(C)c1ccc(C(F)(F)F)cc1)c(=O)n2C [TasQ, Tasquinimod]",EC50,[1],1 µM
same,fold increase in anti-tumor efficacy compared to Linomide,[2]; in vivo,> 25 fold
same,fold enhanced potency in antiangiogenic and anti-metastatic ability,"[2]; preclinical studies, vs. first-generation Linomide",30-60 fold
same,"AGR2, AHR Target Genes (Fold Increases by TasQ)",[3],5.5 fold
same,"AHR, AHR Target Genes (Fold Increases by TasQ)",[3],3.0 fold
same,"ALDOC, HIF-1α Target Genes (Fold Decrease by TasQ)",[3],−1.4 fold
same,"AR, AR Target Genes (Fold Decrease by TasQ)",[3],−2.0 fold
same,"BHLHE41, MEF-2 Target Genes (Fold Increase by TasQ)",[3],2.9 fold
same,"BNIP3, HIF-1α Target Genes (Fold Decrease by TasQ)",[3],−1.9 fold
same,"CA12, MEF-2 Target Genes (Fold Increase by TasQ)",[3],2.7 fold
same,"CAPN2, MEF-2 Target Genes (Fold Increase by TasQ)",[3],1.6 fold
same,"CDC6, Proliferation Target Genes (Fold Decrease by TasQ)",[3],−1.5 fold
same,"CDT1, Proliferation Target Genes (Fold Decrease by TasQ)",[3],−2.2 fold
same,"CEACAM1, MEF-2 Target Genes (Fold Increase by TasQ)",[3],1.8 fold
same,"CYP1B1, AHR Target Genes (Fold Increases by TasQ)",[3],10.0 fold
same,"DTYMK, Proliferation Target Genes (Fold Decrease by TasQ)",[3],−1.6 fold
same,"E2F1, Proliferation Target Genes (Fold Decrease by TasQ)",[3],−2.0 fold
same,"EDN1, MEF-2 Target Genes (Fold Increase by TasQ)",[3],15.0 fold
same,"GDF15, AHR Target Genes (Fold Increases by TasQ)",[3],2.3 fold
same,"HILPDA, HIF-1α Target Genes (Fold Decrease by TasQ)",[3],−1.7 fold
same,"IGF1, HIF-1α Target Genes (Fold Decrease by TasQ)",[3],−11.0 fold
same,"IGFBP2, HIF-1α Target Genes (Fold Decrease by TasQ)",[3],−1.8 fold
same,"IGFBP5, HIF-1α Target Genes (Fold Decrease by TasQ)",[3],−18.0 fold
same,"KLKP1, AR Target Genes (Fold Decrease by TasQ)",[3],−2.3 fold
same,"LDHA, HIF-1α Target Genes (Fold Decrease by TasQ)",[3],−1.5 fold
same,"LOX, HIF-1α Target Genes (Fold Decrease by TasQ)",[3],−4.0 fold
same,"MCM2, Proliferation Target Genes (Fold Decrease by TasQ)",[3],−1.9 fold
same,"MCM3, Proliferation Target Genes (Fold Decrease by TasQ)",[3],−1.6 fold
same,"MCM5, Proliferation Target Genes (Fold Decrease by TasQ)",[3],−2.0 fold
same,"MKI67, Proliferation Target Genes (Fold Decrease by TasQ)",[3],−1.7 fold
same,"NKX3.1, AR Target Genes (Fold Decrease by TasQ)",[3],−2.3 fold
same,"NQO1, AHR Target Genes (Fold Increases by TasQ)",[3],2.9 fold
same,"NR4A1, MEF-2 Target Genes (Fold Increase by TasQ)",[3],1.4 fold
same,"NR4A2, MEF-2 Target Genes (Fold Increase by TasQ)",[3],1.8 fold
same,"P4HA1, HIF-1α Target Genes (Fold Decrease by TasQ)",[3],−1.8 fold
same,"PDK1, HIF-1α Target Genes (Fold Decrease by TasQ)",[3],−1.7 fold
same,"PTN, HIF-1α Target Genes (Fold Decrease by TasQ)",[3],−6.1 fold
same,"S100P, MEF-2 Target Genes (Fold Increase by TasQ)",[3],5.7 fold
same,"SLC45A3, AR Target Genes (Fold Decrease by TasQ)",[3],−3.7 fold
same,"THB5, MEF-2 Target Genes (Fold Increase by TasQ)",[3],8.0 fold
same,"TIPARP, AHR Target Genes (Fold Increases by TasQ)",[3],3.4 fold
same,"TMPRSS2, AR Target Genes (Fold Decrease by TasQ)",[3],−1.9 fold
same,"TNC, HIF-1α Target Genes (Fold Decrease by TasQ)",[3],−2.5 fold
same,"TTR, HIF-1α Target Genes (Fold Decrease by TasQ)",[3],−3.8 fold
same,"VEGFB, HIF-1α Target Genes (Fold Decrease by TasQ)",[3],−1.5 fold
same,reduction of the risk of radiographic progression or death vs. placebo,"[4]; Phase III, oral 1 mg/day, mCRPC patients on ADT",36%
same,overall survival,"[4]; Phase III, oral 1 mg/day",not enhanced
same,Cmax,"[4]; human, in vivo, 1 mg",~500 nM
same,maximum tolerated dose (MTD) in humans,"[4]; human, in vivo",1 mg
same,IC50,[5],> 50 µM and ~50 µM
same,inhibition of growth of LvCaP-3 xenografts at the end of study,[6],⅔
